# Source: patent publication US20250145589A1, “PYRIDINE DERIVATIVE AND USE THEREOF” (SICHUAN HUIYU PHARMACEUTICAL CO., LTD., priority 2021, published 2025)
# pIC50: −log10 of the molar value. Where two headings read alike, the source gives them in different places.
# Key:
# [1] = test system: NCI-H358 cells (KRAS G12C mutant); experiment: NCI-H358 cell proliferation inhibition (CellTiter-Glo); assay type: cell-based; conditions: Homo sapiens, NCI-H358, 72 h; H358 cells (G12C mutation), 3 days, Table 6; read-out: NCI-H358 (IC50)
# [2] = test system: MIA PaCa-2 cells (KRAS G12C mutant); experiment: MIA PaCa-2 cell anti-proliferation (CellTiter-Glo); assay type: cell-based; conditions: Homo sapiens; for pIC50: 72 h, MIA Paca-2 cells, 3 days, Table 7, read-out: MIA PaCa-2 (IC50)
# Procedure: The number of viable cells was determined using the CellTiter-Glo® assay to evaluate the anti-proliferation efficacy of compounds. […] The compounds were serially diluted 4-fold in DMSO to obtain 9 concentrations, and then further diluted with DMEM (10% FBS+2.5% horse serum+1% penicillin/streptomycin) cell culture medium to obtain the working solutions (2×), 15 μL of each working solution was added to the cell culture supernatant in each well, and the cells were further incubated for 3 days at 37° C. with 5% CO2. The plate was then equilibrated with CellTiter-Glo® reagent at room temperature (25° C.) for 30 minutes. After adding 25 μL of CellTiter-Glo®, reagent, the cells were thoroughly mixed with the CellTiter-Glo® reagent using a microplate shaker for 2 minutes, and then incubated at room temperature for at least 30 minutes. […] Data were analyzed using GraphPad Prism for IC50 values (Note: The negative control refers to the group without inhibitor).
# [3] = test system: MIA PaCa-2-AMGR drug-resistant cell line; experiment: MIA PaCa-2-AMGR drug-resistant cell proliferation inhibitory activity test; assay type: cell-based; conditions: for pIC50: 72 h, MIA PaCa-2-AMGR drug-resistant cells, 3 days incubation, CellTiter-Glo
# Procedure: Test Example 7: Generation of MIA PaCa-2-AMGR drug-resistant cell line
# (§1) MIA PaCa-2 cells were seeded and cultured at 50 to 70% confluence in six-well plate with DMEM (10% FBS+2.5% horse serum) medium at 37° C. with 5% CO2. AMG510 was added for induction at three starting concentrations of 1 nM, 10 nM and 50 nM, and the medium containing the same concentration of AMG510 was replaced every 3 days. Cells were passaged once they reached confluence. After every two passages at a given concentration of drug, the concentration was increased in a 3-fold increment until final concentrations of 1 μM for AMG510 was achieved.
# (§2) MIA PaCa-2-AMGR cells in logarithmic growth phase were collected and seeded into a clear-bottom 96-well plate at a density of 4×10^3 cells per well in 80 μL of medium, and then incubated overnight at 37° C. with 5% CO2. The compounds were serially diluted 5-fold in DMSO to obtain 8 concentrations, and then further diluted with DMEM (10% FBS+2.5% horse serum) cell culture medium to obtain the working solutions (5×), 20 μL of each working solution was added to the cell culture supernatant in each well, and the plate was further incubated for 3 days at 37° C. with 5% CO2. The plate was then equilibrated with CellTiter-Glo® reagent at room temperature (25° C.) for 10-30 minutes. After aspirating 50 μL of the medium, 50 μL of CellTiter-Glo® reagent was added. The cells were thoroughly mixed with the CellTiter-Glo® reagent using a microplate shaker for 2 minutes, and then incubated at room temperature for 10 minutes. The 96-well plate was placed in a multi-mode microplate reader to record the luminescence values (RLU).
# (§3) The inhibitory rate was calculated using the following formula: […]
# Data were analyzed using GraphPad Prism for IC50 values (Note: The negative control refers to the group without inhibitor) The data were presented m Table 9
# PI3Kα = PI3Kα (Homo sapiens (Human), UniProt P42336); experiment: Inhibition of PI3Kα efficacy assay (ADP-Glo kinase assay); assay type: biochemical; conditions: read-out: PI3Kα inhibitory activity (IC50)
# How it was run: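 Eight five-fold dilutions of compound (2 mM DMSO stock) tested; kinase reaction with PI and ATP ran 60 min at RT, followed by ADP-Glo and detection reagent steps of 40 min each. Four-parameter logistic fitting gave IC50 values.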
# [4] = test system: NCI-H358-AMGR drug-resistant cell line; experiment: NCI-H358-AMGR drug-resistant cell proliferation inhibitory activity test; assay type: cell-based; conditions: for pIC50: 72 h, NCI-H358-AMGR drug-resistant cells, 3 days incubation, CellTiter-Glo
# Procedure: Test Example 6t Generation of NCI-H358-AMGR Drug-Resistant Cell Line
# as §1, with “NCI-H358 cells” for “MIA PaCa-2 cells”, “with RPMI-640” for “with DMEM”, “(10% FBS)” for “(10% FBS+2.5% horse serum)”, “with 5%4” for “with 5%”, “After every,” for “After every”, “a 3-old” for “a 3-fold”
# as §2, with “NCI-H358-AMGR cells” for “MIA PaCa-2-AMGR cells”, “with RPMI-640)” for “with DMEM”, “(10% FBS)” for “(10% FBS+2.5% horse serum)”, “of CellTiter-Glo®,” for “of CellTiter-Glo®”, “the CellTiter-Glo®,” for “the CellTiter-Glo®”, “The […]” for “The 96-well”
# as §3
# Data were analyzed using GraphPad Prism for IC50 values (Note: The negative control refers to the group without inhibitor).
# PI3Kδ = PI3Kδ (Homo sapiens (Human), UniProt O00329); experiment: Inhibition of PI3Kδ efficacy assay (ADP-Glo kinase assay); assay type: biochemical; conditions: read-out: PI3Kδ inhibitory activity (IC50)
# How it was run: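 Luminescent ADP-Glo readout of PI3Kδ: after a 60 min RT reaction with PI/ATP substrate, ATP depletion (40 min) and ADP detection (40 min) steps followed. Compounds tested as eight five-fold serial dilutions; inhibition rates fitted to log(inhibitor) vs. response, variable slope, for IC50.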
# Chain of PI3Kα (P42336 whole entry): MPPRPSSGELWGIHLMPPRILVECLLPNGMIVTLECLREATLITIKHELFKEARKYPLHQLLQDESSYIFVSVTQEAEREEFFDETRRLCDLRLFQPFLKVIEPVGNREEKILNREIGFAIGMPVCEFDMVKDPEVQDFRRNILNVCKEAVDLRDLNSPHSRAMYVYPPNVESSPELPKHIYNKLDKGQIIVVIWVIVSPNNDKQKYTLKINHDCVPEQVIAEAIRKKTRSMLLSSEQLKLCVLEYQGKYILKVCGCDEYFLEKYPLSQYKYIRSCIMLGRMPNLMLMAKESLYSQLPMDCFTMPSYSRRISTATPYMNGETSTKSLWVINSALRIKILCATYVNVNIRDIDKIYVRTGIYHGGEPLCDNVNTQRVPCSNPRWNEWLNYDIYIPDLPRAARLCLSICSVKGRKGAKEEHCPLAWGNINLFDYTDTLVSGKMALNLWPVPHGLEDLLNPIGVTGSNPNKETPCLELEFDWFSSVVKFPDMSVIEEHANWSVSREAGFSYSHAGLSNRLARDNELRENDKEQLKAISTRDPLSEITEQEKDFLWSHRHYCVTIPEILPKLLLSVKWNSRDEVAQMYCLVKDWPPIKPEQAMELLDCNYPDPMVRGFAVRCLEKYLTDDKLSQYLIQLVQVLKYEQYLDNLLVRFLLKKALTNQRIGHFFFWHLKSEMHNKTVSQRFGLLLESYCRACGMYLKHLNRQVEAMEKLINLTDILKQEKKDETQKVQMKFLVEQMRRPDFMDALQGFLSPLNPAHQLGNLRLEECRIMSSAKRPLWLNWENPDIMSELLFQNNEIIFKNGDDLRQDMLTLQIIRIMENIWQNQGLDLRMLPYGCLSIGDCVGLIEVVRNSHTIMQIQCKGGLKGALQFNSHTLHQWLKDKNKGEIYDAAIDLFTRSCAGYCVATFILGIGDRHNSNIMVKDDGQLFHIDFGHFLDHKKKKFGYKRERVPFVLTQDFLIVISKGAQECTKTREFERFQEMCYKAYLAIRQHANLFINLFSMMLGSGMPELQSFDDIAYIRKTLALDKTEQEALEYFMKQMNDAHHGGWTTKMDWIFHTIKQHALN
# Chain of PI3Kα (P27986 whole entry partner): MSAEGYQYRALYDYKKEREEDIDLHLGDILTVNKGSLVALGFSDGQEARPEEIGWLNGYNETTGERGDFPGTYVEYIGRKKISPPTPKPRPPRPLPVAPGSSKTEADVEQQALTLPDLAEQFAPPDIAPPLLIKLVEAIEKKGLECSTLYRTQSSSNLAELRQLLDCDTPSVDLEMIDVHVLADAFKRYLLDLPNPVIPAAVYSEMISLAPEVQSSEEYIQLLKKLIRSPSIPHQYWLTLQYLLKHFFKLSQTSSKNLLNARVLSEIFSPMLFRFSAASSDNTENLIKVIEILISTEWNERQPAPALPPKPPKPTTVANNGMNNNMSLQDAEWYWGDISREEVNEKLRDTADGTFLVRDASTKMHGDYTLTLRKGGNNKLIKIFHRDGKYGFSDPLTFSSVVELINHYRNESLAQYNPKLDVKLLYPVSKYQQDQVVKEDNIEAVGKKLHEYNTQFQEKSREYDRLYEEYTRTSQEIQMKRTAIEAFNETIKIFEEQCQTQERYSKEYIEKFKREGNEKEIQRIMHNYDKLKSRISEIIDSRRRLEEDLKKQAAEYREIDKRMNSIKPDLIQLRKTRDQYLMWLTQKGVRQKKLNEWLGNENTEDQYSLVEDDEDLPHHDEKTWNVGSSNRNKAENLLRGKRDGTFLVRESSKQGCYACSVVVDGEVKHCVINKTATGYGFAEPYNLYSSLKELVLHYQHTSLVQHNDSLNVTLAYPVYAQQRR
# Chain of PI3Kδ (O00329 whole entry): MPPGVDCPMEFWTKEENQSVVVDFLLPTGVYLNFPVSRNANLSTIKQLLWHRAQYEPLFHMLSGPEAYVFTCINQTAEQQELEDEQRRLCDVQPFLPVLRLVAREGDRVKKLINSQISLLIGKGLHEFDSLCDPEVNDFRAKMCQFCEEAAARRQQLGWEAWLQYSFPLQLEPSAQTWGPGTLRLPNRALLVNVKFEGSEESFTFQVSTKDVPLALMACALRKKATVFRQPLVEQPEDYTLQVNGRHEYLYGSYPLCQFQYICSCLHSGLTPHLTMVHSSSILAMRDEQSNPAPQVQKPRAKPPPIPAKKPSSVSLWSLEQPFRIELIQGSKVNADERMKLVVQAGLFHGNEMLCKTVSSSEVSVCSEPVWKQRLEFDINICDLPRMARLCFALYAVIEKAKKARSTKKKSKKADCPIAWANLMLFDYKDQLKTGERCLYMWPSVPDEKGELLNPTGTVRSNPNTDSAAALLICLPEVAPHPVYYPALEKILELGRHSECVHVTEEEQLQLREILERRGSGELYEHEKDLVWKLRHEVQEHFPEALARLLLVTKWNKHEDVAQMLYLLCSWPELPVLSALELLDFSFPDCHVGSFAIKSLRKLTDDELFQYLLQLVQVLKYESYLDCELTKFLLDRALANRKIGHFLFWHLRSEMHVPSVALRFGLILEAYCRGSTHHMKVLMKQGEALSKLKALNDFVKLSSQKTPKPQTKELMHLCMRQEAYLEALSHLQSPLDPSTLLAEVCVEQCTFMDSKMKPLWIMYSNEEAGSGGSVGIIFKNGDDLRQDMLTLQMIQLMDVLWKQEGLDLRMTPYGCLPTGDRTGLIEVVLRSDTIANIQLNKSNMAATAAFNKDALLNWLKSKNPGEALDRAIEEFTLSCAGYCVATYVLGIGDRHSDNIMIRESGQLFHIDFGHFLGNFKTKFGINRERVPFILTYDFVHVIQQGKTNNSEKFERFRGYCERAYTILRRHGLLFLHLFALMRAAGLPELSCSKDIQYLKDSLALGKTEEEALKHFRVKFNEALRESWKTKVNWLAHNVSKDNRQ
# Chain of PI3Kδ (P27986 whole entry partner): as the sequence (P27986 whole entry partner) above
SMILES,pIC50 [1],pIC50 [2],pIC50 [3],pIC50 (PI3Kα; Table 4),pIC50 [4],pIC50 (PI3Kα; Table 1),pIC50 (PI3Kα; Table 2),pIC50 (PI3Kδ; Table 2),pIC50 (PI3Kδ; Table 4),"IC50 ([2]; MIA PaCa-2, 72 h, read-out: MIA PaCa-2 (IC50, nM))","inhibition at 10 µM ([4]; 10 μM, NCI-H358-AMGR, read-out: inhibition rate at the maximum dose)","inhibition at 10 µM ([3]; 10 μM, MIA PaCa-2-AMGR, read-out: inhibition rate at the maximum dose)"
"COc1ncc(-c2ccc3ncnc(N4CCC5(CN(C(=O)/C=C/C(C)=O)C5)C4)c3c2)cc1NS(=O)(=O)c1ccc(F)cc1F [Example 13, (E)-2,4-difluoro-N-(2-methoxy-5-(4-(2-(4-oxopent-2-enoyl)-2,6-diazaspiro[3.4]octan-4-yl)quinazolin-6-yl)pyridin-3-yl)benzenesulfonamide]",7.13,6.84,6.36,,,,,,,,,
"C=C(C(=O)N1CCN(c2ncnc3ccc(-c4cnc(OC)c(NS(=O)(=O)c5ccc(F)cc5F)c4)cc23)CC1)C(C)O (centres unmarked) [Example 167, 2,4-difluoro-N-(5-(4-(4-(3-hydroxy-2-methylenebutanoyl)piperazin-1-yl)quinazolin-6-yl)-2-methoxypyridin-3-yl)benzenesulfonamide]",7.44,,,8.66,7.14,,,,7.93,112 nM,,
"COc1ncc(-c2ccc3ncnc(N4CCN(C(=O)/C=C/C(C)=O)CC4)c3c2)cc1NS(=O)(=O)c1ccc(F)c2ccccc12 [Example 187, (E)-4-fluoro-N-(2-methoxy-5-(4-(4-(4-oxopent-2-enoyl)piperazin-1-yl)quinazolin-6-yl)pyridin-3-yl)naphthalene-1-sulfonamide]",6.85,6.76,6.65,8.34,6.43,,,,,,,
"CC(=O)/C=C/C(=O)N1CCN(c2ncnc3ccc(-c4cnc(OC(F)(F)F)c(NS(=O)(=O)c5ccc(F)cc5F)c4)nc23)CC1 [Example 226, (E)-2,4-difluoro-N-(5-(4-(4-(4-oxopent-2-enoyl)piperazin-1-yl)pyrido[3,2-d]pyrimidin-6-yl)-2-(trifluoro-methoxy)pyridin-3-yl)benzene-sulfonamide]",6.61,6.45,6.37,8.85,6.45,,,,,,,
"C=C(F)C(=O)N1CCN(c2ncnc3ccc(-c4cnc(OC)c(NS(=O)(=O)c5ccc(F)cc5F)c4)cc23)CC1 [Example 59, 2,4-difluoro-N-(5-(4-(4-(2-fluoroacryloyl)piperazin-1-yl)quinazolin-6-yl)-2-methoxypyridin-3-yl)benzenesulfonamide]",7.51,,6.85,,,,8.48,7.88,,,,
"COc1ncc(-c2ccc3ncnc(N4CCN(C(=O)/C=C/C(C)=O)C[C@@H]4C)c3c2)cc1NS(=O)(=O)c1ccc(F)cc1F [Example 8, (S,E)-2,4-difluoro-N-(2-methoxy-5-(4-(2-methyl-4-(4-oxopent-2-enoyl)piperazin-1-yl)quinazolin-6-yl)pyridin-3-yl)benzenesulfonamide]",7.04,7.13,6.60,,7.09,,,,,,,
"C=CC(=O)N1CCN(c2nc(=O)n(-c3c(C)ccnc3C(C)C)c3nc(-c4c(O)cccc4F)c(F)cc23)[C@@H](C)C1 [AMG-510, reference compound]",,,< 5.00,,< 5.00,,,,,,≤ 50%,< 50%

# Second part, led by results:
pIC50 [1],pIC50 [2],pIC50 [3],pIC50 (PI3Kα; Table 4),pIC50 [4],pIC50 (PI3Kα; Table 1),pIC50 (PI3Kα; Table 2),pIC50 (PI3Kδ; Table 2),SMILES,pIC50 (PI3Kδ; Table 4),"IC50 ([2]; MIA PaCa-2, 72 h, read-out: MIA PaCa-2 (IC50, nM))","inhibition at 10 µM ([4]; 10 μM, NCI-H358-AMGR, read-out: inhibition rate at the maximum dose)","inhibition at 10 µM ([3]; 10 μM, MIA PaCa-2-AMGR, read-out: inhibition rate at the maximum dose)"
7.16,6.98,7.34,8.80,6.88,,,,"COc1ccc(S(=O)(=O)Nc2cc(-c3ccc4ncnc(N5CCN(C(=O)/C=C/C(C)=O)CC5)c4c3)cnc2OC)c(F)c1 [Example 185, (E)-2-fluoro-4-methoxy-N-(2-methoxy-5-(4-(4-(4-oxopent-2-enoyl)piperazin-1-yl)quinazolin-6-yl)pyridin-3-yl)benzene-sulfonamide]",,,,
7.71,7.46,7.54,8.77,7.35,,,,"COc1ncc(-c2ccc3ncnc(C4=CCN(C(=O)/C=C/C(C)=O)CC4)c3n2)cc1NS(=O)(=O)c1c(F)cc(F)cc1F [Example 236, (E)-2,4,6-trifluoro-N-(2-methoxy-5-(4-(1-(4-oxopent-2-enoyl)-1,2,3,6-tetrahydropyridin-4-yl)pyrido[3,2-d]pyrimidin-6-yl)pyridin-3-yl)benzenesulfonamide]",,,,
7.62,7.39,7.50,8.52,7.52,,,,"COc1ncc(-c2ccc3ncnc(N4CCN(C(=O)/C=C/C(C)=O)CC4)c3n2)cc1NS(=O)(=O)c1c(C)cccc1F [Example 229, (E)-2-fluoro-N-(2-methoxy-5-(4-(4-(4-oxopent-2-enoyl)piperazin-1-yl)pyrido[3,2-d]pyrimidin-6-yl)pyridin-3-yl)-6-methyl-benzene-sulfonamide]",,,,
6.87,7.03,7.20,,7.07,,,,"COc1ncc(-c2ccc3ncnc(N4CCN(C(=O)/C=C/C(C)=O)CC4)c3n2)cc1NS(=O)(=O)c1cnccc1C [Example 223, (E)-N-(2-methoxy-5-(4-(4-(4-oxopent-2-enoyl)piperazin-1-yl)pyrido[3,2-d]pyrimidin-6-yl)pyridin-3-yl)-4-methyl-pyridine-3-sulfonamide]",,,,
7.68,7.01,7.44,,7.57,9.59,,,"C=CC(=O)N1CCN(c2ncnc3ccc(-c4cnc(OC)c(NS(=O)(=O)c5ccc(F)cc5F)c4)cc23)CC1 [Example 1, N-(5-(4-(4-acryloylpiperazin-1-yl)quinazolin-6-yl)-2-methoxypyridin-3-yl)-2,4-difluorobenzenesulfonamide]",,,,
7.60,7.28,7.50,8.62,7.36,,,,"COc1ncc(-c2ccc3ncnc(N4CCN(C(=O)/C=C/C(C)=O)CC4)c3c2)cc1NS(=O)(=O)c1c(C)cccc1F [Example 186, (E)-2-fluoro-N-(2-methoxy-5-(4-(4-(4-oxopent-2-enoyl)piperazin-1-yl)quinazolin-6-yl)pyridin-3-yl)-6-methyl-benzene-sulfonamide]",,,,
